Where two headings read alike, the source gives them in different places.
Assays:
[1] = biological target: T1, Vaccinia-related kinase 1 (VRK1) (Homo sapiens, UniProt Q99986); test: biochemical; type: binding
[2] = biological target: T1, Vaccinia-related kinase 1 (VRK1); test: biochemical; type: binding; remark: listed apart in the source

T1 sequence (Q99986 whole entry): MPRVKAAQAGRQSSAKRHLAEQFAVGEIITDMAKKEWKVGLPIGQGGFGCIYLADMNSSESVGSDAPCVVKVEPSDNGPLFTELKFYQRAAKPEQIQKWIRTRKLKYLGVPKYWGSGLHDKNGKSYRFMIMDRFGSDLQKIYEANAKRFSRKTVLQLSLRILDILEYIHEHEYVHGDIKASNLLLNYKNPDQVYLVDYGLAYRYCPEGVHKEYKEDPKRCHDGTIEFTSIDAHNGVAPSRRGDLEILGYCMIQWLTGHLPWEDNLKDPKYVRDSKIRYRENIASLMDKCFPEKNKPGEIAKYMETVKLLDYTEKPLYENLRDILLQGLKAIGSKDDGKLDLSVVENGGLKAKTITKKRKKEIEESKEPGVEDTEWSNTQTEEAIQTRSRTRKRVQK

| SMILES | Kd [1] [µM] | Kd [2] [µM] |
| --- | --- | --- |
| COc1ccc(-c2cc(=O)c3c(O)c(OC)c(O)cc3o2)cc1OC [eupatilin] | 184 |  |
| O=c1cc(-c2ccc(O)c(O)c2)oc2cc(O)cc(O)c12 [luteolin, 3′,4′,5,7-tetrahydroxyflavone] |  | 5.8 |
| COc1c(O)cc(O)c2c(=O)cc(-c3ccccc3)oc12 [wogonin] | 120 |  |

Reference: publication PMC4195671, “Luteolin Suppresses Cancer Cell Proliferation by Targeting Vaccinia-Related Kinase 1” (PLoS ONE, 2014)
